B1: BDNF: brain-derived neurotrophic factor, member of the neurotrophin nerve growth factor family, purchased from Merck (protein, UniProt P23560 19-247, looked up)
Neurotrophic factor BDNF …: APMKEANIRGQGGLAYPGVRTHGTLESVNGPKAGSRGLTSLADTFEHVIEELLDEDQKVRPNEENNKDADLYTSRVMLSSQVPLEPPLLFLLEEYKNYLDAANMSMRVRRHSDPARRGELSVCDSISEWVTAADKKTAVDMSGGTVTVLEKVPVSKGQLKQYFYETKCNPMGYTKEGCRGIDKRHWNSQCRTTQSYVRALTMDSKKRIGWRFIRIDTSCVCTLTIKRGR

Tested on: RA-treated SH-SY5Y cells
Experiment: Neurite outgrowth of RA-treated SH-SY5Y cells
Assay type: cell-based, human
Description: FIG. 1. BDNF promotes neurite outgrowth of RA-treated SH-SY5Y, and induces phosphorylation of NgR1. (A) SH-SY5Y cells were incubated with indicated reagents. Cell images were taken with phase contrast microscopy. (B) Number of cells extending neurite-like structures of more than 40 μm and total cell number were counted from images taken in (A). More than 300 cells were examined in each sample. The proportion of cells extending neurite-like structures of more than 40 μm was indicated as a percentage of total cell number. An average of three experiments is shown. Error bars indicate S. E. between experiments. Data were analysed with student's t test. (C) Whole cell extracts were prepared from RA-treated SH-SY5Y cells after incubation with or without BDNF for 24 hours, and were analysed by SDS-PAGE. Immunoblotting was performed with the indicated antibodies. (D) Whole cell extract prepared from cells treated with both RA and BDNF was incubated with the indicated reagents for 1 hour at 37° C. Immunoblotting was performed with anti-NgR1 antibody. (E) RA-treated SH-SY5Y cells were incubated with BDNF in the presence or absence of one of the following: PKC inhibitor—500 nM Gö6983 or Gö6976; PKA inhibitor—2 μM KT5720 or a PKA inhibitor peptide 14-22; or either 500 nM or 1 μM of a casein kinase inhibitor, for 24 hours. Whole cell extracts prepared from these cells were analysed by SDS-PAGE. Immunoblotting was performed with anti-NgR1 antibody.
FIG. 2. CK2 promotes neurite outgrowth of RA-treated SH-SY5Y cells without BDNF. (A) RA-treated SH-SY5Y cells were incubated with the indicated reagents for 24 hours. Cell images were taken with phase contrast microscopy. (B) Number of cells extending neurite-like structures of more than 40 μm and total cell number were counted from images taken in (A). More than 300 cells were examined in each sample. Calculation was done as FIG. 1B. Result of student's t test between RA alone and RA+CK II+ATP was p=0.0014. (C) Myc-tagged wild type and mutant versions of NgR1 were over-expressed in SH-SY5Y cells. The cells were treated with RA, CK2 and ATP. Over-expressed NgR1-Myc was detected with anti-Myc antibody. (D) SH-SY5Y cells over-expressing 281S/A mutant NgR1-Myc were incubated with RA and NEP1-40. (E) SH-SY5Y cells over-expressing 281S/D mutant NgR1-Myc were treated as (C).
After fixation, beta-tubulin III was detected with anti-beta-tubulin III antibody. B, Wild type or 281S/A mutant NgR1-Myc was over-expressed in SH-SY5Y cells. After 5 days treatment with RA, these cells were incubated with 500 U/ml PKA and 500 nM (74 kBq/ml) ATP. Then, NgR1-Myc was immuno-precipitated and analysed with SDS-PAGE. […] NgR1-Myc was detected with anti-Myc antibody. […]

[1] = RA-treated SH-SY5Y, substance alone, 24 hours

| Molecule | neurite outgrowth [1] | neurite outgrowth (cells over-expressing 281S/A mutant NgR1, NEP1-40 for 24 hours) |
| --- | --- | --- |
| Nc1ncnc2c1ncn2[C@@H]1O[C@H](COP(=O)(O)OP(=O)(O)OP(=O)(O)O)[C@@H](O)[C@H]1O [ATP] | Neither addition of ATP alone nor CK2 alone to the culture medium induced neurite outgrowth | – |
| NEP1-40: a competitive inhibitor of Nogo-66 binding to NgR1 (MEDLDQSPLVSSSDSPPRPQPAFKYQFVREPEDEEEEEEE; Nogo-66 residues 1-40; UniProt Q9NQC3 1-40, looked up, fragment) [reference compound] | promoted neurite outgrowth | showed neurite outgrowth |
| B1 | efficient neurite outgrowth | – |

Source: patent US9089565B2, “Compositions and methods for causing neurite outgrowth” (MEDICAL RESEARCH COUNCIL, priority 2009, dated 2015)
